Data set [1] is described as follows: Biodistribution of radiopharmaceuticals in rats with tourniquet on left hind leg. The class given is in vivo, Sprague-Dawley rats. The conditions noted are these: for Femoral Percentage Dose per Gram / Tibial Percentage Dose per Gram: i.v. tail vein; for Tibial Percentage Dose per Gram: sacrifice after two hours. The text has this:
Rat biodistribution studies were done on Male Sprague-Dawley rats weighing 180–200 g that had been acclimated for approximately one week prior to this study. Four test complexes were used, Ho-DOTMP (Example 3), Ho-EDTMP (Example 4), Sm-DOTMP (Example 5) and Sm-EDTMP (Example 6). The rats were placed in a restraining cage that afforded accessibility to the left hind leg and tail. Prior to injection a tie wrap tourniquet was placed on the left hind femur above the knee to restrict blood flow. The amount of pressure induced by the tourniquet was standardized by using a tie wrap gun and was sufficient to stop arterial flow. Three rats per complex each received a 100.0 μL intravenous injection in a lateral tail vein. The tourniquets were allowed to remain in place for 5, 10 or 20 minutes post injection and were then removed. The rats were then watched for two hours, the usual biodistribution period used to allow excretion of all radioactive complexes not bound to tissue. The rats were then sacrificed for removal of tibias. The number of radioactive counts were then determined and compared to the average of number of counts of three 100.0 μL standards of the same material that was injected. Several additional tissues (femur, injection site, liver, kidney, spleen, muscle, and blood) were collected and counted for rats that had the 20 minutes restricted blood flow to check for expected renal excretion of radioactive complexes.
This reflects the concentration of the radioactive complex in the bone. Table 1 combines the data on the radioactivity found in the tibias of the rats from Examples 3 to 6 for each of the three times of tourniquet placement. Table 2 combines the data on the radioactivity found in the femurs of the rats from Examples 3 to 6 for the tourniquets applied for 20 minutes. The degree of “protection” of the bone by the tourniquet can be seen by comparison of the radioactivity in the bones on the left side (“protected” by the tourniquet for the time specified) as compared to the corresponding bones on the right side (fully exposed to the systemic, intravenous dose).

For a further data set, the system named is Staphylococcus aureus. As to the kind of experiment: Treatment of osteomyelitis in rats with 166Ho-DOTMP (serial radiographs of the leg). The class given is in vivo, Sprague Dawley rats. The conditions noted are these: rats with S. aureus osteomyelitis of left leg; intramuscular injection of 30 Gray (9 milliCurie); tourniquet above knee released after 10 minutes; in two weeks. Here is the method: This example describes the successful treatment of osteomyelitis in rats using ^166Ho-DOTMP. Four 150 g male Sprague Dawley rats were anesthetized and prepared for surgery by shaving the left leg. The skin over the left tibia and fibula was opened, a hole was drilled into the bone marrow, and an 18-gauge needle was inserted into the bone marrow. Through the needle, a piece of 0 surgical suture and approximately 0.1 ml of Staphylococcus aureus culture in Trypticase soy broth were introduced into the bone marrow. The needle was removed and the bone defect sealed with cyanoacrylate glue. The skin was closed with 0 surgical suture. The rats were followed with serial radiographs of the left leg. Lytic lesions diagnostic of osteomyelitis developed in the fibula over the next three weeks. The entire bone appeared radiolucent. Two rats were followed without treatment. One week later, both of the rats died. […] Culture of the fluid grew Gram positive cocci consistent with the original Staphylococcus aureus infection. Two rats were treated with ^166Ho-DOTMP. A tourniquet was placed on the left leg above the knee. An intramuscular injection of 30 Gray (9 milliCurie) of ^166Ho-DOTMP was given after application of the tourniquet. The tourniquet was released after 10 minutes. The rats were followed with continued serial radiographs of the leg.

Setting [2] is: Left Femur (partially protected by tourniquet), tourniquet 20 minute.
Setting [3] is: Left Tibia (protected by tourniquet), tourniquet 5 minute.
Setting [4] is: Left Tibia (protected by tourniquet), tourniquet 10 minute.
Setting [5] is: Left Tibia (protected by tourniquet), tourniquet 20 minute.
Where [6] appears, read: Right Femur (unprotected), tourniquet 20 minute.
Setting [7] is: Right Tibia (unprotected), tourniquet 5 minute.
The mark [8] stands for this setting: Right Tibia (unprotected), tourniquet 10 minute.
Setting [9] is: Right Tibia (unprotected), tourniquet 20 minute.

In the case of `O=P(O)(O)CN1CCN(CP(=O)(O)O)CCN(CP(=O)(O)O)CCN(CP(=O)(O)O)CC1.[Ho+3]` [Ho-DOTMP], the “Dose per Gram in Left Leg as a Percentage of Dose per Gram in Right Leg” value in data set [1] (Femur, tourniquet 20 minute) is 24%; in data set [1] (Tibia, tourniquet 5 minute), 45%; in data set [1] (Tibia, tourniquet 10 minute), 45%; in data set [1] (Tibia, tourniquet 20 minute) it was 21%. For the same molecule, the “Femoral Percentage Dose per Gram” value came to 1.33 Percentage Dose per Gram in data set [1] (setting [2]) and 5.59 Percentage Dose per Gram in data set [1] (setting [6]). The “Tibial Percentage Dose per Gram” value came to 3.19 Percentage Dose per Gram in data set [1] (setting [3]); 3.41 Percentage Dose per Gram in data set [1] (setting [4]); 1.35 Percentage Dose per Gram in data set [1] (setting [5]); 7.06 Percentage Dose per Gram in data set [1] (setting [7]); 7.52 Percentage Dose per Gram in data set [1] (setting [8]); 6.39 Percentage Dose per Gram in data set [1] (setting [9]).

Consider `O=P(O)(O)CN(CCN(CP(=O)(O)O)CP(=O)(O)O)CP(=O)(O)O.[Ho+3]` [Ho-EDTMP], for which the “Dose per Gram in Left Leg as a Percentage of Dose per Gram in Right Leg” value in data set [1] (Femur, tourniquet 20 minute) is reported as 54%; in data set [1] (Tibia, tourniquet 5 minute), 84%; in data set [1] (Tibia, tourniquet 10 minute), 50%; in data set [1] (Tibia, tourniquet 20 minute), 23%. Also, the figures for the “Femoral Percentage Dose per Gram” value in data set [1] (setting [2]) and in data set [1] (setting [6]) were 2.33 Percentage Dose per Gram and 4.31 Percentage Dose per Gram, respectively. Besides, the “Tibial Percentage Dose per Gram” value stood at 1.35 Percentage Dose per Gram in data set [1] (setting [3]); 3.49 Percentage Dose per Gram in data set [1] (setting [4]); 1.25 Percentage Dose per Gram in data set [1] (setting [5]); 1.60 Percentage Dose per Gram in data set [1] (setting [7]); 6.95 Percentage Dose per Gram in data set [1] (setting [8]); 5.33 Percentage Dose per Gram in data set [1] (setting [9]).

As to `O=P(O)(O)CN1CCN(CP(=O)(O)O)CCN(CP(=O)(O)O)CCN(CP(=O)(O)O)CC1.[Sm+3]` [Sm-DOTMP], the “Dose per Gram in Left Leg as a Percentage of Dose per Gram in Right Leg” value in data set [1] (Femur, tourniquet 20 minute) was 22%; in data set [1] (Tibia, tourniquet 5 minute) it was 61%; in data set [1] (Tibia, tourniquet 10 minute) it was 50%; in data set [1] (Tibia, tourniquet 20 minute) it was 25%. Further, the “Femoral Percentage Dose per Gram” value in data set [1] (setting [2]) came out at 1.40 Percentage Dose per Gram; in data set [1] (setting [6]) it was 6.46 Percentage Dose per Gram. Besides, the “Tibial Percentage Dose per Gram” value in data set [1] (setting [3]) came to 4.82 Percentage Dose per Gram; in data set [1] (setting [4]), 3.38 Percentage Dose per Gram; in data set [1] (setting [5]), 2.06 Percentage Dose per Gram; in data set [1] (setting [7]), 7.91 Percentage Dose per Gram; in data set [1] (setting [8]), 6.79 Percentage Dose per Gram; in data set [1] (setting [9]), 8.34 Percentage Dose per Gram.

As for `O=P(O)(O)CN(CCN(CP(=O)(O)O)CP(=O)(O)O)CP(=O)(O)O.[Sm+3]` [Sm-EDTMP], the “Dose per Gram in Left Leg as a Percentage of Dose per Gram in Right Leg” value in data set [1] (Femur, tourniquet 20 minute) worked out at 38%; in data set [1] (Tibia, tourniquet 5 minute), 79%; in data set [1] (Tibia, tourniquet 10 minute) it was 41%; in data set [1] (Tibia, tourniquet 20 minute), 36%. The “Femoral Percentage Dose per Gram” value in data set [1] (setting [2]) was 2.05 Percentage Dose per Gram; in data set [1] (setting [6]), 5.44 Percentage Dose per Gram. The “Tibial Percentage Dose per Gram” value in data set [1] (setting [3]) came to 5.33 Percentage Dose per Gram; in data set [1] (setting [4]) it was 2.56 Percentage Dose per Gram; in data set [1] (setting [5]), 2.04 Percentage Dose per Gram; in data set [1] (setting [7]), 6.73 Percentage Dose per Gram; in data set [1] (setting [8]), 6.17 Percentage Dose per Gram; in data set [1] (setting [9]) it was 5.73 Percentage Dose per Gram.

Consider `O=P([O-])(O)CN1CCN(CP(=O)(O)O)CCN(CP(=O)([O-])O)CCN(CP(=O)(O)O)CC1.[166Ho]` [^166Ho-DOTMP], for which the “Radiographic appearance of tibia and fibula” value with Staphylococcus aureus is “return to normal appearance of the tibia and fibula”.

Source of the values: US7045116B2, “Treatment of osteomyelitis with radiopharmaceuticals” (priority 2001, dated 2006).
